# Test results: patent US10358427B2, “Modulators of indoleamine 2,3-dioxygenase” (GLAXOSMITHKLINE INTELLECTUAL PROPERTY DEVELOPMENT LIMITED, priority 2015, dated 2019)
# Structures can show the parent of a compound that is named as a salt.
# Experiments:
# [1] = target: T1, indoleamine 2, 3-dioxygenase (IDO1) (Homo sapiens, UniProt P14902); assay: HeLa IDOi assay (kynurenine detection via mass spectrometry); type: cell-based; set-up: human epithelial HeLa cells (CCL-2; host or cells: HeLa cells stimulated with human IFN-γ; conditions: human epithelial HeLa cells stimulated with IFN-γ; kynurenine by mass spectrometry; 2 days incubation
# Procedure: (§1) Compounds of the present invention were tested via high-throughput cellular assays utilizing detection of kynurenine via mass spectrometry and cytotoxicity as end-points. For the mass spectrometry and cytotoxicity assays, human epithelial HeLa cells (CCL-2; ATCC®, Manassas, Va.) were stimulated with human interferon-γ (IFN-γ) (Sigma-Aldrich Corporation, St. Louis, Mo.) to induce the expression of indoleamine 2, 3-dioxygenase (IDO1). Compounds with IDO1 inhibitory properties decreased the amount of kynurenine produced by the cells via the tryptophan catabolic pathway. Cellular toxicity due to the effect of compound treatment was measured using CellTiter-Glo® reagent (CTG) (Promega Corporation, Madison, Wis.), which is based on luminescent detection of ATP, an indicator of metabolically active cells.
# (§2) In preparation for the assays, test compounds were serially diluted 3-fold in DMSO from a typical top concentration of 5 mM and plated at 0.5 μL in 384-well, polystyrene, clear bottom, tissue culture treated plates with lids (Greiner Bio-One, Kremsmünster, Austria) to generate 11-point dose response curves. Low control wells (0% kynurenine or 100% cytotoxicity) contained either 0.5 μL of DMSO in the presence of unstimulated (−IFN-γ) HeLa cells for the mass spectrometry assay or 0.5 μL of DMSO in the absence of cells for the cytotoxicity assay, and high control wells (100% kynurenine or 0% cytotoxicity) contained 0.5 μL of DMSO in the presence of stimulated (+IFN-γ) HeLa cells for both the mass spectrometry and cytotoxicity assays.
# Frozen stocks of HeLa cells were washed and recovered in DMEM high glucose medium with HEPES (Thermo Fisher Scientific, Inc., Waltham, Mass.) supplemented with 10% v/v certified fetal bovine serum (FBS) (Thermo Fisher Scientific, Inc., Waltham, Mass.), and 1× penicillin-streptomycin antibiotic solution (Thermo Fisher Scientific, Inc., Waltham, Mass.). The cells were diluted to 100,000 cells/mL in the supplemented DMEM medium. 50 μL of either the cell suspension, for the mass spectrometry assay, or medium alone, for the cytotoxicity assay, were added to the low control wells, on the previously prepared 384-well compound plates, resulting in 5,000 cells/well or 0 cells/well respectively. IFN-γ was added to the remaining cell suspension at a final concentration of 10 nM, and 50 μL of the stimulated cells were added to all remaining wells on the 384-well compound plates. The plates, with lids, were then placed in a 37° C., 5% CO2 humidified incubator for 2 days.
# (§3) Following incubation, the 384-well plates were removed from the incubator and allowed to equilibrate to room temperature for 30 minutes. For the cytotoxicity assay, CellTiter-Glo® was prepared according to the manufacturer's instructions, and 10 μL were added to each plate well. After a twenty minute incubation at room temperature, luminescence was read on an EnVision® Multilabel Reader (PerkinElmer Inc., Waltham, Mass.). For the mass spectrometry assay, 10 μL of supernatant from each well of the compound-treated plates were added to 40 μL of acetonitrile, containing 10 μM of an internal standard for normalization, in 384-well, polypropylene, V-bottom plates (Greiner Bio-One, Kremsmünster, Austria) to extract the organic analytes. Following centrifugation at 2000 rpm for 10 minutes, 10 μL from each well of the acetonitrile extraction plates were added to 90 μL of sterile, distilled H2O in 384-well, polypropylene, V-bottom plates for analysis of kynurenine and the internal standard on the RapidFire 300 (Agilent Technologies, Santa Clara, Calif.) and 4000 QTRAP MS (SCIEX, Framingham, Mass.). MS data were integrated using Agilent Technologies' RapidFire Integrator software, and data were normalized for analysis as a ratio of kynurenine to the internal standard. […]
# [2] = target: T1, indoleamine 2, 3-dioxygenase (IDO1); assay: PBMC IDOi assay (kynurenine detection via mass spectrometry); type: cell-based; conditions: human PBMC stimulated with IFN-γ and LPS; kynurenine by mass spectrometry; 2 days incubation
# Procedure: as §1, with “peripheral blood mononuclear” for “epithelial HeLa”, “(PBMC) (PB003F; AlICells®, Alameda, Calif.)” for “(CCL-2; ATCC®, Manassas, Va.)”, “Mo.) and lipopolysaccharide from Salmonella minnesota (LPS) (Invivogen, San Diego, Calif.)” for “Mo.)”
# as §2, with “(−IFN-γ/−LPS) PBMCs” for “(−IFN-γ) HeLa cells”, “(+IFN-γ/+LPS) PBMCs” for “(+IFN-γ) HeLa cells”
# Frozen stocks of PBMCs were washed and recovered in RPMI 1640 medium (Thermo Fisher Scientific, Inc., Waltham, Mass.) supplemented with 10% v/v heat-inactivated fetal bovine serum (FBS) (Thermo Fisher Scientific, Inc., Waltham, Mass.), and 1× penicillin-streptomycin antibiotic solution (Thermo Fisher Scientific, Inc., Waltham, Mass.). The cells were diluted to 1,000,000 cells/mL in the supplemented RPMI 1640 medium. 50 μL of either the cell suspension, for the mass spectrometry assay, or medium alone, for the cytotoxicity assay, were added to the low control wells, on the previously prepared 384-well compound plates, resulting in 50,000 cells/well or 0 cells/well respectively. IFN-γ and LPS were added to the remaining cell suspension at final concentrations of 100 ng/ml and 50 ng/ml respectively, and 50 μL of the stimulated cells were added to all remaining wells on the 384-well compound plates. The plates, with lids, were then placed in a 37° C., 5% CO2 humidified incubator for 2 days.
# as §3, with “and 40” for “and 10”
# T1 sequence (P14902 whole entry): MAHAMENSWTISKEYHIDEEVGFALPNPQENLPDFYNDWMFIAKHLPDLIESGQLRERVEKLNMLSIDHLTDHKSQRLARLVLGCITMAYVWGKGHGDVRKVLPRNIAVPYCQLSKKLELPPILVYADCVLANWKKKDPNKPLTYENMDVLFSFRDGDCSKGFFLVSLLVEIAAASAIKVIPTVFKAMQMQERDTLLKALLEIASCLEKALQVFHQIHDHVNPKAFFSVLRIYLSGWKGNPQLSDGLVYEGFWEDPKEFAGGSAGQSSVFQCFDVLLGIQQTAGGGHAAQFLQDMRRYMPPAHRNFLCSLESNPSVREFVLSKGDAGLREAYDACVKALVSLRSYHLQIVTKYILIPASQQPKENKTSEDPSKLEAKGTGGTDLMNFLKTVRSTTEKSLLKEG
Structure (SMILES),EC50 [1],EC50 [2]
"CC(C)CN(c1ccc([C@H]2C[C@H]2C(=O)O)cc1Nc1nc2ccccc2o1)C1CCCCC1 (relative stereo) [Example 1, cis-2-(3-(Benzo[d]oxazol-2-ylamino)-4-(cyclohexyl(isobutyl)amino)phenyl)cyclopropanecarboxylic acid]",100 nM,
"CC(C)CN(c1ccc([C@H]2C[C@H]2C(=O)O)cc1Nc1nc2ccccc2s1)C1CCCCC1 (relative stereo) [Example 3, cis-2-(3-(Benzo[d]thiazol-2-ylamino)-4-(cyclohexyl(isobutyl)amino)phenyl)cyclopropanecarboxylic acid]",15.8 nM,
"CC(C)CN(c1ccc([C@H]2C[C@H]2C(=O)O)cc1Nc1nc(Cl)ns1)C1CCCCC1 (relative stereo) [Example 4, cis-2-(3-((3-Chloro-1,2,4-thiadiazol-5-yl)amino)-4-(cyclohexyl(isobutyl)amino)phenyl)cyclopropanecarboxylic acid]",10 nM,1.26 nM
"CC(C)CN(c1ccc([C@H]2C[C@H]2C(=O)O)cc1Nc1nc(-c2ccccc2)co1)C1CCCCC1 (relative stereo) [Example 5, cis-2-(4-(Cyclohexyl(isobutyl)amino)-3-((4-phenyloxazol-2-yl)amino)phenyl)cyclopropanecarboxylic acid]",398 nM,
"CC(C)CN(c1ccc([C@H]2C[C@H]2C(=O)O)cc1Nc1nc(C(F)(F)F)ns1)C1CCCCC1 (relative stereo) [Example 6, cis-2-(4-(Cyclohexyl(isobutyl)amino)-3-((3-(trifluoromethyl)-1,2,4-thiadiazol-5-yl)amino)phenyl)cyclopropanecarboxylic acid, 2,2,2-trifluoroacetic acid]",10 nM,1.26 nM
"CC(C)CN(c1ccc(C2CC2C(=O)O)cc1Nc1nc2ccccc2[nH]1)C1CCCCC1 (stereo not drawn) [Example 2, cis-2-(3-((1H-Benzo[d]imidazol-2-yl)amino)-4-(cyclohexyl(isobutyl)amino)phenyl)cyclopropanecarboxylic acid]",5.01 nM,
"CC(C)CN(c1ccc(-c2ccccc2C(=O)O)cc1Nc1nc2ccccc2o1)C1CCCCC1 [Example 7, 3′-(Benzo[d]oxazol-2-ylamino)-4′-(cyclohexyl(isobutyl)amino)-[1,1′-biphenyl]-2-carboxylic acid]",79.4 nM,39.8 nM
"CC(C)CN(c1ccc(-c2ccccc2C(=O)O)cc1Nc1nc2ccccc2[nH]1)C1CCCCC1 [Example 8, 3′-((1H-Benzo[d]imidazol-2-yl)amino)-4′-(cyclohexyl(isobutyl)amino)-[1,1′-biphenyl]-2-carboxylic acid]",7.94 nM,
"CC(C)CN(c1ccc(-c2ccccc2C(=O)O)cc1Nc1nc(Cl)ns1)C1CCCCC1 [Example 9, 3′-((3-Chloro-1,2,4-thiadiazol-5-yl)amino)-4′-(cyclohexyl(isobutyl)amino)-[1,1′-biphenyl]-2-carboxylic acid]",10 nM,2.51 nM
"CC(C)CN(c1ccc(-c2ccccc2-c2nnn[nH]2)cc1Nc1nc(Cl)ns1)C1CCCCC1 [Example 10, N^3-(3-Chloro-1,2,4-thiadiazol-5-yl)-N^4-cyclohexyl-N^4-isobutyl-2′-(1H-tetrazol-5-yl)-[1,1′-biphenyl]-3,4-diamine]",12.6 nM,
"CC(C)CN(c1ccc(-c2ccccc2-c2nnn[nH]2)cc1Nc1nc2ccccc2o1)C1CCCCC1 [Example 11, N^3-(Benzo[d]oxazol-2-yl)-N^4-cyclohexyl-N^4-isobutyl-2′-(1H-tetrazol-5-yl)-[1,1′-biphenyl]-3,4-diamine]",25.1 nM,15.8 nM
"Cc1cc(Nc2cc(-c3ccccc3-c3nn[nH]n3)ccc2N(CC(C)C)CC(C)C)no1 [Example 12, N^4,N^4-diisobutyl-N^3-(5-methylisoxazol-3-yl)-2′-(2H-tetrazol-5-yl)-[1,1′-biphenyl]-3,4-diamine]",158 nM,39.8 nM
"C/C=C/Cc1cc(-c2ccccc2-c2nnn[nH]2)cc(Nc2nc3ccccc3o2)c1OCCC [Example 13, (E)-N-(5-(But-2-en-1-yl)-4-propoxy-2′-(1H-tetrazol-5-yl)-[1,1′-biphenyl]-3-yl)benzo[d]oxazol-2-amine, Trifluoroacetic acid Salt]",3.98 nM,7.94 nM
"CCCCc1cc(-c2ccccc2-c2nnn[nH]2)cc(Nc2nc3ccccc3o2)c1OCCC [Example 14, N-(5-Butyl-4-propoxy-2′-(1H-tetrazol-5-yl)-[1,1′-biphenyl]-3-yl)benzo[d]oxazol-2-amine]",5.01 nM,7.94 nM
"C/C=C/Cc1cc(-c2ccccc2-c2nnn[nH]2)cc(Nc2nc(Cl)ns2)c1OCCC [Example 15, (E)-N-(5-(But-2-en-1-yl)-4-propoxy-2′-(1H-tetrazol-5-yl)-[1,1′-biphenyl]-3-yl)-3-chloro-1,2,4-thiadiazol-5-amine, Trifluoroacetic acid Salt]",126 nM,
